Reference: patent publication US20190255087A1, “ENCAPSULATION AND HIGH LOADING EFFICIENCY OF PHOSPHORYLATED DRUG AND IMAGING AGENTS IN NANOPARTICLES” (THE PENN STATE RESEARCH FOUNDATION, priority 2016, published 2019)
Where “and” joins values, the source holds several entries; their conditions need not be identical. Equal entries are not always repeated.

Experiments:
[1] = Encapsulated drug concentration and encapsulation efficiency (EE) in Cit-X-CPSNPs by LC-MS/MS; assay type: physicochemical; conditions: for Drug concentration (M) / EE (mol %): citrate-functionalized CPSNPs, weighted mean ± 95% confidence interval, n = 4-6 replicates
Protocol: The encapsulation efficiencies (EE) in Table 1 was experimentally determined by LC-MS/MS for 5FU, 5FU:ATP, FUdR, FdUMP, Gem, and GemMP, as drawn in FIG. 2 1. The EE is defined by the following equation,
(§1) where mi was the total drug content in moles and mf was the moles encapsulated as assessed by LC-MS/MS. Particles were diluted in 10% methanol with 0.1% formic acid and 5-CU was spiked in as an internal standard. Chromatography was done on a 2.1 mm×10 cm HSS T3 or C18 CSH column (Waters) on a Waters I-class FTN chromatography system with the column temperature at 40° C. Mobile phase A was water with 5 mM ammonium acetate and B was methanol. The flow rate was 0.5 mL/min and the chromatography consisted of holding at 7.5% B for 1 min, increasing to 95% B over 0.5 min, holding at 95% B for 0.5 min before equilibration to starting conditions. Eluate was analyzed by an inline Waters TQ-S mass spectrometer. The capillary was set at 1.0 kV, source temperature at 150° C., desolvation temperature at 600° C., cone gas at 150 L/hr, and desolvation gas flow at 1200 L/hr. Multiple reaction monitoring (MRM) was used to detect 5-CU, FdUMP, Gem, and GemMP. The MRM transition used for 5-CU was 145 >42 with the collision energy set at 12. The MRM transition used for drug agents was 325 >195 with the collision energy set at 12. Drug concentrations were determined using TargetLynx version 4.1 (Waters) using an external calibration curve with 1/x weighting.
as §1, with “Particles” for “where mi was the total drug content in moles and mf was the moles encapsulated as assessed by LC-MS/MS. Particles”, “5-CU” for “5-CU, FdUMP, Gem,”, “FdUMP.” for “GemMP.”, “FdUMP” for “drug agents”, “FdUMP” for “Drug”

BxPC-3 = test: Cell proliferation assay (alamarBlue); assay type: cell-based, human; conditions: for Decrease of BxPC-3 proliferation: 200 μM free drug; for EC50 of free drug, BxPC-3: in words
Description: (§2) CPSNPs in 70/30 ethanol/water suspensions were completely dried under pre-purified argon and reconstituted in sterile 1×PBS without calcium or magnesium.
(§3) BxPC-3 and Panc-1 were obtained from ATCC. RLT-PSC pancreatic stellate cells were a gift from Professor Ralf Jesenofsky, University of Heidelberg, and H6c7, immortalized human pancreatic ductal epithelial cells, were a gift of Dr. Ming-Sound Tsao, University of Toronto. H6c7 cells have a near normal genotype with wild type p53 and KRAS genes. Cells were cultured in the appropriate media as follows: Dulbecco's modified Eagle medium with 10% FBS for PANC-1 and RLT-PSC, RPMI 1640 with 10% FBS for BxPC-3, and complete keratinocyte basal medium (KBM), containing growth factors, hormones and bovine pituitary extract for H6c7 cells (Invitrogen).
(§4) PANC-1, BxPC-3, RLT-PSC and H6c7 cells were seeded into 96 well plates at 5,000 cells per well. At 24 hours post seeding, media only/no treatment (NT), vehicle (lx sterile PBS without calcium and magnesium), 5FU and FdUMP treatments were initiated and viable cells determinations were made at 24, 48 or 72 hr post-treatment using an alamarBlue® assay (Life Technologies). Data were normalized to vehicle treatments for all time points.
as §4, with “CPSNPs in 70/30 ethanol/water suspensions were completely dried under pre-purified argon and reconstituted in sterile 1×PBS without calcium or magnesium. PANC-1,” for “PANC-1,”, “(1×” for “(lx”
(§5) Results were expressed as means±standard error. Student t-tests were used to evaluate statistical significance with a p<0.05 considered to be significant. To calculate EC50±95% CI, nonlinear regression analysis was performed to generate the curve of best fit for the data according to a Sigmoidal regression using a 4-parameter logistic curve calibration [Y=Yo+(a/(1+((X/Xo)^b))] in SigmaPlot 12 (Systat, Inc.).

PANC-1 [2] = test: Cell proliferation assay (alamarBlue); assay type: cell-based, human; conditions: for EC50 of free drug, PANC-1: in words
Description: as §2, §3, §4
as §4, with “CPSNPs in 70/30 ethanol/water suspensions were completely dried under pre-purified argon and reconstituted in sterile 1×PBS without calcium or magnesium. PANC-1,” for “PANC-1,”, “(1×” for “(lx”
as §5

PANC-1 [3] = test: Cell cycle analysis by propidium iodide flow cytometry; assay type: cell-based, human; conditions: PANC-1, 72 hr, 250 μM
Protocol: (§6) For determination of nuclear DNA content, PANC-1 treatments included NT, vehicle (1× sterile calcium- and magnesium-free PBS), 250 μM free FdUMP, Ghost-CPSNPs, or 200 nM FdUMP-CPSNPs. After 72 hours of treatment, cells were fixed in 75% ethanol overnight. Immediately prior to analysis, cells were treated with 1 μg/mL of RNase A and stained with 50 μg/mL of propidium iodide, which is taken up by double-stranded DNA. DNA content was determined using a FACSCalibur flow cytometer (BD Biosciences), and data were analyzed with Cellquest (Verity Software).
as §6, with “FdUMP, ghost-CPSNPs,” for “FdUMP, Ghost-CPSNPs,”, “50 µg/mL” for “50 μg/mL”

[4] = biological target: T1, thymidylate synthase (TS) (Homo sapiens, UniProt P04818); test: Thymidylate synthase immunoblotting, PANC-1 cells; assay type: cell-based; parameters: endogenous in cells; host or cells: PANC-1 (ATCC); conditions: 250 μM free FdUMP
Protocol: Thus in the presence of folate, TS dimers and FdUMP create an irreversibly inactivated enzyme:drug complex.^59 Experimentally, the inhibition of TS activity by FdUMP can be detected by the presence of this stable ternary complex.
PANC-1 cells were incubated for 24 hours in the following treatment groups: NT, vehicle, 250 μM free FdUMP, 200 nM FdUMP-CPSNPs, and Ghost-CPSNPs in PBS. Lysates were collected by aspirating the media, washing with 1×PBS, and adding RIPA buffer containing Complete Mini protease cocktail (Roche). Lysates were spun to remove debris and the supernatants frozen at −80° C. Protein concentration was determined by micro BCA protein assay (Thermo Scientific) and 20 μg of protein separated by gel electrophoresis. After transfer to HyBond ECL and blocking for 1 hr in 5% BSA, blots were probed overnight with anti-TS antibody (1:1000, D5B3, #9045 Cell Signaling). Blots were washed, probed with anti-rabbit-HRP secondary antibody for 1 hour and developed with Pierce Pico (Thermo Scientific). Quantitation of scanned blots was done using Image J software.
PANC-1 cells were incubated for 24 hours in the following treatment groups: NT, vehicle, 250 μM free FdUMP, 200 nM FdUMP-CPSNPs, and ghost-CPSNPs in PBS. […] Lysates were spun to remove debris and the supernatants frozen at −80° C. […] Quantitation of scanned blots was done using Image J software.

[5] = biological target: T1, thymidylate synthase (TS); test: Thymidylate synthase immunoblotting, BxPC-3 cells; assay type: cell-based; parameters: PANC-1 cells were incubated for 24 hours in the following treatment groups; endogenous in cells; conditions: 250 μM free FdUMP
[6] = in vivo; cited from earlier work

T1 sequence (P04818 2-313 limits assumed): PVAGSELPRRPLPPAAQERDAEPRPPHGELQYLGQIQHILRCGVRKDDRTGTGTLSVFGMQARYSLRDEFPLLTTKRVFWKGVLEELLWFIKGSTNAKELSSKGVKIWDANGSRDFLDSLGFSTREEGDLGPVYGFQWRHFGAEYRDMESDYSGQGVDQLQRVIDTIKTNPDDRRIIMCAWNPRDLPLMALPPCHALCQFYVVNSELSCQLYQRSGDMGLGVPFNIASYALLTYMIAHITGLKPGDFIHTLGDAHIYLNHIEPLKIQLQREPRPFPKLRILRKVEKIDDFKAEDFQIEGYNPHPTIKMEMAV

Molecule	EE, range over replicated formulations ([1]; Cit-X-CPSNPs)	Drug concentration (M) [1]	EE (mol %) [1]	Encapsulated drug concentration, range over replicated formulations ([1]; Cit-X-CPSNPs) [µM]	Decrease of BxPC-3 proliferation (BxPC-3)	EC50 of free drug, BxPC-3 (BxPC-3)	Reduction of PANC-1 proliferation (PANC-1 [2]; 200 μM free drug)	EC50 of free drug, PANC-1 (PANC-1 [2])	% Cells in G2/M (PANC-1 [3]) [%]	% Cells in G1/G0 (PANC-1 [3]; listed as free FdUMP)	% Cells in S (PANC-1 [3]; listed as free FdUMP)	TS in inactive ternary complex (inhibition), PANC-1 [4] [%]	TS in inactive ternary complex (inhibition), BxPC-3 [5] [%]	Fraction of 5FU catabolized to 5-fluorodihydrouracil by DPD [6]	Fraction of 5FU pro-drug activated to FdUMP [6]
O=c1[nH]c(=O)n([C@H]2C[C@H](O)[C@@H](CO)O2)cc1F [FUdR, 5-fluoro-2′-deoxyuridine]	< 0.01 mol %	2.8 (±1.2)×10^−8 M	< 0.01 mol %												
O=c1[nH]c(=O)n([C@H]2C[C@H](O)[C@@H](COP(=O)(O)O)O2)cc1F [FdUMP, 5-fluoro-2′-deoxyuridine 5′-monophosphate]	7-97 mol %	3.0 (±1.4)×10^−4 M	41 (±16) mol %	60 to 830	equally effective	low uM	twice as effective as free 5FU	low uM	23.5 ± 6.3	20% and 20.3 ± 3.0%	56% and 56.3 ± 10.3%	80	90		
O=c1[nH]cc(F)c(=O)[nH]1 [Formulation 5FU, 5-fluorouracil]		4.1 (±1.8)×10^−7 M	0.11 (±0.04) mol %		equally effective	low uM		low uM						more than 80%	less than 20%
Nc1ccn([C@@H]2O[C@H](CO)[C@@H](O)C2(F)F)c(=O)n1 [Gem, 2′,2′-difluorodeoxycytidine]		1.9 (±0.6)×10^−9 M	< 0.01 mol %												
gemcitabine monophosphate [GemMP]	15-30 mol %	2.3 (±0.4)×10^−5 M	22 (±6) mol %			nM range		nM range							
